Experimental data taken from patent US20170333390A1, “PHYTOCHEMICAL COMPOSITIONS INCLUDING SESAMIN FOR ANTI-INFLAMMATORY, ANTI-CYTOKINE STORM, AND OTHER USES” (CHIANG MAI UNIVERSITY, priority 2009, published 2017).

System: cartilage tissue cultures exposed to IL-1 (ECM degradation, HA release)
Experiment: HA release from IL-1 exposed cartilage tissue cultures (ELISA)
Assay type: cell-based
Settings: relative to control culture, sulfate
Experimental: Experiments were conducted to evaluate the anti-inflammatory effects of combinations of particular phytochemical compositions provided by the present disclosure with known substances, compositions, or drugs that are associated with an anti-inflammatory effect and/or an anti-degenerative or tissue integrity preservation effect in connective tissue. In the context of the present disclosure, the term “connective tissue” encompasses connective tissue proper (e.g., dense or fibrous connective tissue), as well as specialized connective tissue such as cartilage or bone. More specifically, experiments were conducted to evaluate the anti-inflammatory, anti-degenerative, and/or structural preservation effects of a combination of particular phytochemical compositions provided by the present disclosure with glucosamine sulfate. In addition, the experiments compared the anti-inflammatory/anti-degenerative effects of the combination of particular sesamin or sesamin-based phytochemical compositions provided by the present disclosure plus glucosamine sulfate, versus the anti-inflammatory/anti-degenerative effects of glucosamine sulfate alone.
Hyaluronic acid (HA) is an important component of the extracellular matrix (ECM), as well as a major component of synovial fluid. HA is present in articular cartilage, and contributes to cartilage resilience. It is known that IL-1 stimulates the synthesis and activity of matrix metalloproteinases and other enzymes that are associated with cartilage degradation as well as rheumatoid arthritis and osteoarthritis. A set of experimental cartilage tissue cultures were prepared using cartilage tissue samples containing HA within their ECMs. As further detailed below, the experimental cartilage tissue cultures selectively incorporated glucosamine sulfate alone; sesamin alone; or a combination of glucosamine sulfate and sesamin. Additionally, a control cartilage tissue culture remained unexposed to either of sesamin or glucosamine sulfate.
ECM degradation was induced in the experimental and control cartilage tissue cultures by exposing the cultures to IL-1. A measure or estimate of a cartilage tissue anti-degenerative effect was defined in accordance with an amount of HA that an experimental cartilage tissue culture released into the tissue culture medium relative to a reference or baseline amount of HA that was released into the tissue culture medium by the control cartilage tissue culture. More particularly, a percentage reduction in the amount of HA released into the tissue culture medium by a given experimental cartilage tissue culture relative to the amount of HA released into the tissue culture medium by the control cartilage tissue culture, indicated below as “Percentage (%) HA Reduction”, conveys or indicates the magnitude of an anti-degenerative or structural preservation effect provided by the experimental cartilage tissue culture under consideration. A corresponding measure or estimate of percentage (%) HA retention by cartilage tissue can also be defined based upon the experimental results. The amount or level of HA present in a given tissue culture medium was detected using ELISA, in a manner that can be understood by one of ordinary skill in the art.

## N[C@H]1C(O)O[C@H](CO)[C@@H](O)[C@@H]1O.O=S(=O)(O)O (stereo partly drawn) [Glucosamine Sulfate, glucosamine sulfate, reference compound]
Glucosamine sulfate 20 mM (9 mg/ml), listed as glucosamine sulfate
  Percentage (%) HA Reduction: approximately 3%
Glucosamine sulfate 20 mM (9 mg/ml)
  Percentage (%) HA Reduction: 3%
Glucosamine sulfate 40 mM (18 mg/ml), listed as glucosamine sulfate
  Percentage (%) HA Reduction: approximately 28%
Glucosamine sulfate 40 mM (18 mg/ml)
  Percentage (%) HA Reduction: 28%
Glucosamine sulfate 80 mM (36 mg/ml), listed as glucosamine sulfate
  Percentage (%) HA Reduction: approximately 43%
Glucosamine sulfate 80 mM (36 mg/ml)
  Percentage (%) HA Reduction: 43%
